Results: patent US20150307539A1, “USE OF SULPHATED G[…] PROMOTERS OF NEURITIC GROWTH, M[…] INHIBITING THE PROLIFERATION OF ASTROGLIA AND MICROGLIA” (CONSEJO SUPERIOR DE INVESTIGACIONES CIENTIFICAS (CSIC), priority 2012, published 2015)

Assays:
[1] = system: Astrocytes (primary astroblasts from cerebral cortices of postnatal rats); assay: Inhibition of astroglial cell proliferation, primary astroblasts; format: cell-based, rat; conditions: for IC50: Astrocytes, astroglia, rat, IC50 ± SE
Description: (§1) To study the microglial and astroglial cell proliferation two cell lines of murine microglia were used (BV-2, N13), as well as primary astroblasts isolated from cerebral cortices of postnatal rats on day zero (P0). The cells were kept in DMEM plus 10% SBF, grown and treated for testing the inhibition of cell proliferation, as published earlier by the applicants (I. Garcia-Alvarez et al., J Med Chem 50, 364 (Jan. 25, 2007)). […] It was concluded that the inhibitory activity of IG20-NBD is not affected by the presence of the fluorescent group, as its IC50 is very similar to that obtained for the uncombined glycoside IG-20, which was used as a control in these tests.

N13 microglia = assay: Inhibition of microglial cell proliferation, N13; format: cell-based, mouse; conditions: for IC50: N13, microglia, mouse, IC50 ± SE
Description: as §1

[2] = system: oligodendrocytes and astroglia from cerebral cortices of postnatal rats P0-P1; assay: Oligodendrocyte growth, myelin (MBP) expression and astroglia (GFAP) inhibition in cortical glial culture; format: cell-based, rat; conditions: 30 μM, two weeks culture
Method: To study how the compound having formula I affects the growth of oligodendrocytes, the expression of myelin and the inhibition of astroglia, cerebral cortices of postnatal rats P0-P1 were dissected and enzymatically dissociated for cell culture. After two weeks incubation the culture flasks were stirred for 12 hours. The cells in suspension were harvested, the microglia were removed, and then cultured in DMEM plus SBF 10%. It was incubated for 6 hours to facilitate cell adhesion and the IG-20 (30 μM) was added to the treated group. The cells were cultured for two weeks and the medium was replaced every three days.
In both cases the differences were very significant. It was notable that the astroglial cells were large compared with the oligodendrocytes, which could scarcely be detected in the untreated controls (arrow in 2a, b). […] GFAP, glial fibrillary acidic protein; MBP, myelin basic protein; calibration bars at 75 μm (a, c) and 25 μm (b), as shown; (***) corresponds to P<0.001.

[3] = system: neurons of spinal ganglia (SG) of rat embryos (E15); assay: Neuritic outgrowth of spinal ganglia neurons co-cultured on aldynoglia; format: cell-based
Method: Spinal ganglia (SG) of rat embryos (E15) were dissected and incubated for 12 hours on axon growth-promoting cells (aldynoglia) to allow cellular adhesion of the neurons contained in the SG to the aldynoglia substrate. Next, different concentrations of IG-20, compound 3 produced as described in the synthesis examples, were added. […] The presence of total cells is shown by the fluorescent signal of the Hoechst-marked nuclei (FIG. 1a, 1b, 1c). The nuclei remote from the central body are aldynoglia cells or those that migrate from the SG. The neurofilament images were extracted (FIG. 1g, 1h, 1i) and measured, and the neuritic growth area was compared to the controls (FIG. 1j, 1k). […] A net increase in the neuritic growth area of 1250 μm^2 more than the control with aldynoglia cells (FIG. 1k) was produced. The average speed of neuritic outgrowth in the presence of aldynoglia, 625 μm/72 h corresponding to […], was duplicated in the presence of IG-20 (5 μM) up to 1250 μm/72 h, which corresponds to 17.36 μm/h. Calibration bars at 500 μm; (*) correspond to P<0.05 (P=0.019).

RhoGDIα protein [4] = biological target: T1, RhoGDIα protein (Rattus norvegicus, UniProt Q5XI73); assay: Co-immunoprecipitation with anti-RhoGDIα antibody (Western blot and MS), primary astrocytes; format: binding; conditions: primary astrocytes treated with 30 μM, cytosol fraction
T1 construct: This was verified by RhoGDIα immunoprecipitation in the microglial cell line BV-2, and also in primary astrocyte cultures; endogenous in cells; host or cells: primary astrocyte cultures
T1 sequence (Q5XI73 1-204): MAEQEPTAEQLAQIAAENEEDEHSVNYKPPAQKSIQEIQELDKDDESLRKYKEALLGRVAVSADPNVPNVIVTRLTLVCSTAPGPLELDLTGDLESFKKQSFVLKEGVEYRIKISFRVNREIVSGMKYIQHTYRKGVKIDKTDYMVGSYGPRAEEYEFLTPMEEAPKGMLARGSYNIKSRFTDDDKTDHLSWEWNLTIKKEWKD
Method: (§2) Primary astrocyte and microglia cells (BV-2) were treated with the glycoside IG-20 at 30 μM, lysed and subjected to cell fractionation by differential centrifugation. The soluble fraction was collected and mixed with lysis buffer (1:1). Anti-RhoGDIα antibody (15 μg) was added and it was incubated with rotation at 4° C. overnight. It was immunoprecipitated with Protein A-Sepharose (20 μl) having been previously washed with PBS and centrifuged for 3 minutes at 1100 rpm. The previous mixture was added to the Protein A-Sepharose (1:1). This mixture was incubated with rotation at 4° C. for an hour and a half, and afterwards centrifuged for 5 minutes at 2500 rpm at 4° C. After discarding the supernatant, the precipitate was washed three times with lysis buffer. The immunocomplex of the Protein A-Sepharose was eluted with five volumes of the elution buffer (0.1 M glycine, pH=2.9) and a neutralising volume of 1M tris-HCl, pH=9. The mixture was centrifuged for five minutes at 2500 rpm at 4° C. and the supernatant was collected. […]
(§3) This was verified by RhoGDIα immunoprecipitation in the microglial cell line BV-2, and also in primary astrocyte cultures. […] This was detected by MS as a peak in the mass to charge ratio of 550 (FIG. 4c, 4d), which corresponds to the synthetic glycoside. […]

RhoGDIα protein [5] = biological target: T2, RhoGDIα protein (Mus musculus, UniProt Q99PT1); assay: Co-immunoprecipitation with anti-RhoGDIα antibody (Western blot and MS), BV-2 microglia; format: binding; conditions: BV-2 microglia treated with 30 μM, cytosol fraction
T2 construct: This was verified by RhoGDIα immunoprecipitation in the microglial cell line BV-2; endogenous in cells; host or cells: BV-2 microglial cell line
T2 sequence (Q99PT1 1-204): T1 sequence (Q5XI73 1-204)
Method: as §2, §3

BV-2 microglia = assay: Inhibition of microglial cell proliferation, BV-2; format: cell-based; conditions: mouse, IC50 ± SE
Description: as §1

| Structure (SMILES) | activity in astrocytes compared with IG-20 ([1]; 30 μM compared with 9.3 μM) | IC50 [1] [µM] | IC50 (N13 microglia) [µM] | microglial inhibition compared with IG-20 (N13 microglia; microglia) | IC50 ([1]; Astrocyte) [µM] | GFAP marking compared with untreated control [2] | MBP signal compared with untreated control [2] | increase of mature oligodendroglia, MBP+ [2] [%] | oligodendrocyte size relative to controls [2] | reduction of the proportion of GFAP+ cells (astroglia) [2] [%] | net increase in the neuritic growth area more than the control with aldynoglia cells ([3]; 5 μM, 3 days incubation) [μm^2] | neuritic outgrowth compared with control aldynoglia ([3]; 5 μM, 3 days incubation, SG/aldynoglia co-culture) | average speed of neuritic outgrowth ([3]; 5 μM, control aldynoglia 8.3 μm/h) [μm/h] | average speed of neuritic outgrowth ([3]; 5 μM, control aldynoglia 625 μm/72 h) [μm/72 h] | neuritic outgrowth at five-fold increased concentration ([3]; five-fold increase of 5 μM, 3 days incubation) | interaction with RhoGDIα (co-immunoprecipitation) (RhoGDIα protein [4]) | interaction with RhoGDIα (co-immunoprecipitation) (RhoGDIα protein [5]) | IC50 (BV-2 microglia) [µM] |
| --- | --- | --- | --- | --- | --- | --- | --- | --- | --- | --- | --- | --- | --- | --- | --- | --- | --- | --- |
| CCCCCCCC/C=C\CCCCCCCCO[C@H]1O[C@H](COS(=O)(=O)[O-])[C@@H](O)[C@H](OS(=O)(=O)[O-])[C@H]1NC(=O)C(F)(F)F.[K+].[K+] [Disulphated IG-20, potash from oleyl N-trifluoroacetyl-3,6-O-di-(oxo-sulphonyl)-α-D-glucosaminide] | reduced its activity by three | 30 | 3 ± 0.8 | microglial inhibition was not affected |  |  |  |  |  |  |  |  |  |  |  |  |  |  |
| CCCCCCCC/C=C\CCCCCCCCO[C@H]1O[C@H](COS(=O)(=O)O)[C@@H](O)[C@H](O)[C@H]1NC(=O)CCCCCNc1ccc([N+](=O)[O-])c2nonc12 [IG20-NBD, potash from oleyl 2-[6-(7-nitrobenzofurazan)-aminohexanamide]-6-O-(oxo-sulphonyl)-α-D-glucosaminide] |  |  | 7.8 |  | 11.4 |  |  |  |  |  |  |  |  |  |  |  |  |  |
| CCCCCCCC/C=C\CCCCCCCCO[C@H]1O[C@H](COS(=O)(=O)[O-])[C@@H](O)[C@H](O)C1NC(C)=O.[K+] (stereo partly drawn) [IG-20, potash from oleyl N-acetyl-6-O-(oxo-sulphonyl)-α-D-glucosaminide] |  |  | 3.4 |  | 9.3 | dramatic reduction in GFAP marking | increase in the MBP signal | 10 | 3-4 times larger than the controls | 20 | 1250 | profuse and significant increase in neuritic outgrowth | 17.36 | 1250 | reduced this neuritic outgrowth | interacts directly with the RhoGDIα protein | interacts directly with the RhoGDIα protein | 21 |
